# Assay results as given in patent US20240327382A1 (ALMAC DISCOVERY LIMITED, priority 2021, published 2024).
# Target: T1, Full-length USP19 (Homo sapiens, UniProt O94966)
# T1 construct: Full-length USP19 was purchased from Boston Biochem (E-576); purchased Boston Biochem E-576
# T1 sequence (O94966 1-1318): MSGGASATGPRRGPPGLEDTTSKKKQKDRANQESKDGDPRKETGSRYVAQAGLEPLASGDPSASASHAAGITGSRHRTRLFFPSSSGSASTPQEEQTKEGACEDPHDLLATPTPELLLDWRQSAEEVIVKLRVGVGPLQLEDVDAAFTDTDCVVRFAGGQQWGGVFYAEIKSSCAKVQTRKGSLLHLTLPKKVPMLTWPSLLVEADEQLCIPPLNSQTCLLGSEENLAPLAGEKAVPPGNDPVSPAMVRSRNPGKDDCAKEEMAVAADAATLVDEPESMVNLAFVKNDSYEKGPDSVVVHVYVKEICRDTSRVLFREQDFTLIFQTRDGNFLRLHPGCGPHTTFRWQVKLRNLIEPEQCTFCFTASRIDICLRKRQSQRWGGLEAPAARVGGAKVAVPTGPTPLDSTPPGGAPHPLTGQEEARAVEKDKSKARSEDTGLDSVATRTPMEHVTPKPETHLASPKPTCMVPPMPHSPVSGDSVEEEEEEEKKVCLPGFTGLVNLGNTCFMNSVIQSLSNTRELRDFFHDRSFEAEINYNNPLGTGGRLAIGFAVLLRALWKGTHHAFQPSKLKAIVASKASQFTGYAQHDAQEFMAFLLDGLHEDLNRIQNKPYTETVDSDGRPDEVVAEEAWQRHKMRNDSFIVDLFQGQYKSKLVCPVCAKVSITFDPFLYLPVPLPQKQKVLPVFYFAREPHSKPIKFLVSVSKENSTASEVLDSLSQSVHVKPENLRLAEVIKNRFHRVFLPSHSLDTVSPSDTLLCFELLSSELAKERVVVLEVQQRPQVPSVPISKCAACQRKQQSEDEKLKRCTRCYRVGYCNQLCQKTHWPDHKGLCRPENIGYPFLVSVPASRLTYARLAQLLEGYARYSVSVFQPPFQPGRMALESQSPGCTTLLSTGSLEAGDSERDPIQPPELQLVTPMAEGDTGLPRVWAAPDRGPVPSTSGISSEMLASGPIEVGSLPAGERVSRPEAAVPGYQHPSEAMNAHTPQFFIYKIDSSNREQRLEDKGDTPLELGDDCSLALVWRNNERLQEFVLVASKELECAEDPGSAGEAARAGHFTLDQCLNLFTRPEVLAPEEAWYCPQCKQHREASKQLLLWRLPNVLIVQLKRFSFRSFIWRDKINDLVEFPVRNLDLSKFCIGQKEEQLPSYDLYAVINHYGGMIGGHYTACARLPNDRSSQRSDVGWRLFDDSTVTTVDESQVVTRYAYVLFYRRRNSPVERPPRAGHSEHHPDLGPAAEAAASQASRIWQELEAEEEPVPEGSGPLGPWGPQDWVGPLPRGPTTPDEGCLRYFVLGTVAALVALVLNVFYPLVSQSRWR
# Experiment: USP19 fluorescence polarisation (FP) assay, Ubiquitin-Lys-TAMRA substrate
# Type: biochemical
# Conditions: average of at least two duplicate experiments
# Description: USP19 activity was determined in a fluorescence polarisation (FP) homogeneous assay using the isopeptide Ubiquitin-Lys-TAMRA substrate (either AUB-101, Almac Sciences Scotland Limited, or U-558, Boston Biochem, both of which gave identical results). Full-length USP19 was purchased from Boston Biochem (E-576). Unless otherwise stated, all other reagents were purchased from Sigma. Enzymatic reactions were conducted in black flat bottom polystyrene 384-well plates (Nunc) and 30 μL total volume. USP19 (2.5 nM, 10 μL) was incubated in assay buffer (50 mM HEPES (pH 7.4), 150 mM NaCl, 5 mM DTT, 0.05% BSA (w/v), 0.05% CHAPS) in the presence or absence of inhibitor (10 μL). Inhibitors were stored as 10 mM DMSO stocks in an inert environment (low humidity, dark, low oxygen, rt) using the StoragePod® system (Roylan Developments) and serial dilutions were prepared in buffer just prior to the assay (from 200 μM to 2 μM, 8-18 data point curve). Following incubation at RT for 30 min, the enzymatic reactions were initiated by dispensing the Ub substrate (500 nM, 10 μL). FP was measured every 15 min over a period of 90 min (within the linear range of the assay) using a Synergy 4 plate reader (BioTek) exciting at 530 nm and measuring the amount of parallel and perpendicular light at 575 nm. The FP signal was subsequently normalised to the no compound control. Data were plotted and fitted, and the concentrations resulting in 50% inhibition (IC50) were calculated using the non-linear regression curve fitting model using GraphPad (Prism). IC50 values for the inhibitors of the invention are compiled in Tables 1 and 3 and represent the average of at least two duplicate experiments.
row,IC50,SMILES
1,10 to 100 nM,"O=C(N1CC[C@@H](Cn2ccc(Cl)cc2=O)C2(CCCC2)C1)N1CC[C@@H](NC2CC(F)(F)C2)C[C@H]1c1cc(F)ccc1F [Example 186, 4-Chloro-1-(((R)-7-((2S,4R)-4-((3,3-difluorocyclobutyl)amino)-2-(2,5-difluorophenyl)piperidine-1-carbonyl)-7-azaspiro[4.5]decan-10-yl)methyl)pyridin-2(1H)-one]"
2,< 10 nM,"CC(C)N[C@@H]1CCN(C(=O)N2CC[C@@H](Cn3cnc(-c4ccccc4)cc3=O)C3(CCCC3)C2)[C@H](c2cc(F)ccc2F)C1 [Example 160, 3-(((R)-7-((2S,4R)-2-(2,5-Difluorophenyl)-4-(isopropylamino)piperidine-1-carbonyl)-7-azaspiro[4.5]decan-10-yl)methyl)-6-phenylpyrimidin-4(3H)-one]"
3,< 10 nM,"CCN[C@@H]1CCN(C(=O)N2CC[C@@H](Cn3cnc(-c4ccccc4)cc3=O)C3(CCCC3)C2)[C@H](c2ccccc2)C1 [Example 62, 3-(((R)-7-((2S,4R)-4-(Ethylamino)-2-phenylpiperidine-1-carbonyl)-7-azaspiro[4.5]decan-10-yl)methyl)-6-phenylpyrimidin-4(3H)-one]"
4,< 10 nM,"CN[C@@H]1CCN(C(=O)N2CC[C@@H](Cn3ccc(-c4ccccc4)cc3=O)C3(CCCC3)C2)[C@H](c2cc(F)cc(F)c2)C1 [Example 121, 1-(((R)-7-((2S,4R)-2-(3,5-Difluorophenyl)-4-(methylamino)piperidine-1-carbonyl)-7-azaspiro[4.5]decan-10-yl)methyl)-4-phenylpyridin-2(1H)-one]"
5,10 to 100 nM,"N[C@@H]1CCN(C(=O)N2CCC(CN3CCOCC3=O)C3(CCCC3)C2)[C@H](c2ccccc2)C1 (stereo partly drawn) [Example 41, 4-((7-((2S,4R)-4-Amino-2-phenylpiperidine-1-carbonyl)-7-azaspiro[4.5]decan-10-yl)methyl) morpholin-3-one]"
6,100 to 1000 nM,"CN[C@@H]1CCN(C(=O)N2CC[C@@H](Cn3cccnc3=O)C3(CCCC3)C2)[C@H](c2ccc(F)cc2F)C1 [Example 128, 1-(((R)-7-((2S,4R)-2-(2,4-Difluorophenyl)-4-(methylamino)piperidine-1-carbonyl)-7-azaspiro[4.5]decan-10-yl)methyl)pyrimidin-2(1H)-one]"
7,< 10 nM,"O=C(N1CC[C@@H](Cn2cnc(-c3ccccc3)cc2=O)C2(CCCC2)C1)N1CC[C@@H](NCc2ccncn2)C[C@H]1c1cc(F)ccc1F [Example 170, 3-(((R)-7-((2S,4R)-2-(2,5-Difluorophenyl)-4-((pyrimidin-4-ylmethyl)amino)piperidine-1-carbonyl)-7-azaspiro[4.5]decan-10-yl)methyl)-6-phenylpyrimidin-4(3H)-one]"
8,< 10 nM,"CSc1ncc2c(=O)n(CC3CCN(C(=O)N4CC[C@@H](N)C[C@H]4c4ccccc4)CC34CCCC4)ccc2n1 (stereo partly drawn) [Example 40, 6-((7-((2S,4R)-4-Amino-2-phenylpiperidine-1-carbonyl)-7-azaspiro[4.5]decan-10-yl)methyl)-2-(methylthio)pyrido [4,3-d]pyrimidin-5(6H)-one]"
9,< 10 nM,N[C@@H]1CCN(C(=O)N2CC[C@@H](Cn3cnc(-c4ccccc4)cc3=O)C3(CCCC3)C2)[C@H](c2ccccc2)C1 [Example 25]
10,10 to 100 nM,"CC[C@@H]1C[C@H](N)CCN1C(=O)N1CC[C@@H](Cn2ccc(-c3ccccc3)cc2=O)C2(CCCC2)C1 [Example 68, 1-(((R)-7-((2R,4R)-4-Amino-2-ethylpiperidine-1-carbonyl)-7-azaspiro[4.5]decan-10-yl)methyl)-4-phenylpyridin-2(1H)-one]"
11,< 10 nM,"CN[C@@H]1CCN(C(=O)N2CC[C@@H](Cn3cnc(-c4ccccc4F)cc3=O)C3(CCCC3)C2)[C@H](c2ccccc2)C1 [Example 109, 6-(2-Fluorophenyl)-3-(((R)-7-((2S,4R)-4-(methylamino)-2-phenylpiperidine-1-carbonyl)-7-azaspiro[4.5]decan-10-yl)methyl)pyrimidin-4(3H)-one]"
12,< 10 nM,"O=C(N1CC[C@@H](Cn2ccc(-c3ccccc3)cc2=O)C2(CCCC2)C1)N1CCNC[C@H]1c1ccccc1 (single isomer, unassigned) [Example 16]"
13,< 10 nM,"N[C@@H]1CCN(C(=O)N2CC[C@@H](Cn3cnc(-c4ccccc4)cc3=O)C3(CCCC3)C2)[C@H](c2ccc(F)cc2F)C1 [Example 80, 3-(((R)-7-((2S,4R)-4-Amino-2-(2,4-difluorophenyl)piperidine-1-carbonyl)-7-azaspiro[4.5]decan-10-yl)methyl)-6-phenylpyrimidin-4(3H)-one]"
14,< 10 nM,"CN[C@@H]1CCN(C(=O)N2CCC(Cn3cnc(-c4ccccc4)cc3=O)CC2)[C@H](c2cccc(F)c2)C1 [Example 74, 3-((1-((2S,4R)-2-(3-Fluorophenyl)-4-(methylamino)piperidine-1-carbonyl)piperidin-4-yl)methyl)-6-phenylpyrimidin-4(3H)-one]"
15,< 10 nM,"CC1(C)CN(C(=O)N2CC[C@@H](N)C[C@H]2c2ccccc2)CC[C@H]1Cn1ccc(-c2ccccc2)cc1=O [Example 69, 1-(((R)-1-((2S,4R)-4-Amino-2-phenylpiperidine-1-carbonyl)-3,3-dimethylpiperidin-4-yl)methyl)-4-phenylpyridin-2(1H)-one]"
16,1000 to 20000 nM,"O=C(N1CC[C@H](Cn2ccc(-c3ccccc3)cc2=O)C2(CCCC2)C1)N1CCNC[C@H]1c1ccccc1 (single isomer, unassigned) [Example 15]"
17,10 to 100 nM,"N[C@@H]1CCN(C(=O)N2CCC(Cn3cnc(C(F)(F)F)cc3=O)C3(CCCC3)C2)[C@H](c2ccccc2)C1 (stereo partly drawn) [Example 34, 3-((7-((2S,4R)-4-Amino-2-phenylpiperidine-1-carbonyl)-7-azaspiro[4.5]decan-10-yl)methyl)-6-(trifluoromethyl) pyrimidin-4(3H)-one]"
18,< 10 nM,"CN[C@@H]1CCN(C(=O)N2CC[C@@H](Cn3ccc(-c4ccccc4)cc3=O)C3(CCCC3)C2)[C@H](c2ccccc2)C1 [Example 48, 1-(((R)-7-((2S,4R)-4-(Methylamino)-2-phenylpiperidine-1-carbonyl)-7-azaspiro[4.5]decan-10-yl)methyl)-4-phenylpyridin-2(1H)-one]"
19,< 10 nM,"CN[C@@H]1CCN(C(=O)N2CC[C@@H](Cn3cnc(-c4ccccc4OC)cc3=O)C3(CCCC3)C2)[C@H](c2ccc(F)cc2F)C1 [Example 117, 3-(((R)-7-((2S,4R)-2-(2,4-Difluorophenyl)-4-(methylamino)piperidine-1-carbonyl)-7-azaspiro[4.5]decan-10-yl)methyl)-6-(2-methoxyphenyl)pyrimidin-4(3H)-one]"
20,10 to 100 nM,"N[C@@H]1CCN(C(=O)N2CCC(CN3Cc4nccn4CC3=O)C3(CCCC3)C2)[C@H](c2ccccc2)C1 (stereo partly drawn) [Example 42, 7-((7-((2S,4R)-4-Amino-2-phenylpiperidine-1-carbonyl)-7-azaspiro[4.5]decan-10-yl)methyl)-7,8-dihydroimidazo[1,2-a]pyrazin-6(5H)-one]"
